# ChEMBL document CHEMBL1124021, “Novel type of potential anticancer agents derived from chrysophanol and emodin. Some structure-activity relationship studies” (1988)
# Tested on: L1210
# Experiment: In vitro inhibition of L1210 mouse leukemia cell proliferation.
# Format: functional
# Details: read-out: ID50 (the source's name)
row,Structure (SMILES),IC50 [µM]
1,COc1cccc2c1C(=O)c1c(OC)cc(CN(CCCl)CCCl)cc1C2=O,12.5
2,COc1cc(OC)c2c(c1)C(=O)c1cc(CN(CCCl)CCCl)cc(OC)c1C2=O,2.66
3,CCN(CC)Cc1cc(OC)c2c(c1)C(=O)c1cccc(OC)c1C2=O,128
4,COc1cc(OC)c2c(c1)C(=O)c1cc(CN(CCO)CCO)cc(OC)c1C2=O,> 27.6
5,Cc1cc(O)c2c(c1)C(=O)c1cccc(O)c1C2=O [CHRYSOPHANOL],> 393
6,Cc1cc(O)c2c(c1)C(=O)c1cc(O)cc(O)c1C2=O [EMODIN],13.3
7,COc1cccc2c1C(=O)c1c(OC)cc(CN(CCO)CCO)cc1C2=O,> 50
8,COc1cc(OC)c2c(c1)C(=O)c1cc(CN(CCCl)CCCl)cc(O)c1C2=O,1.75
9,COc1cc(O)c2c(c1)C(=O)c1cc(CN(CCCl)CCCl)cc(O)c1C2=O,0.023
10,O=C1c2cccc(O)c2C(=O)c2c(O)cc(CN(CCCl)CCCl)cc21,0.13
11,COc1cc(CN(CCCl)CCCl)cc2c1C(=O)c1c(O)cccc1C2=O,1.4

# More lines, now with the values ahead:
row,IC50 [µM],Structure (SMILES)
1,6.91,CCN(CC)Cc1cc(OC)c2c(c1)C(=O)c1cc(OC)cc(OC)c1C2=O
2,2.75,CCN(CC)Cc1cc(O)c2c(c1)C(=O)c1cccc(O)c1C2=O
3,1.16,CCN(CC)Cc1cc(O)c2c(c1)C(=O)c1cc(OC)cc(O)c1C2=O
4,13.7,COc1cc(O)c2c(c1)C(=O)c1cc(CN(CCO)CCO)cc(O)c1C2=O
5,23.4,COc1cccc2c1C(=O)c1c(O)cc(CN(CCO)CCO)cc1C2=O
6,11.9,CCN(CC)Cc1cc(OC)c2c(c1)C(=O)c1cccc(O)c1C2=O
7,5.92,O=C1c2cccc(O)c2C(=O)c2c(O)cc(CN(CCO)CCO)cc21
